Consider 1 compound from US20230338392A1, “SUBCUTANEOUS ADMINISTRATION OF AN ASBT INHIBITOR” (Albireo AB, priority 2022, published 2023).

The structures appear in SMILES notation.

A short description of series [1]: Plasma concentration following subcutaneous or intravenous administration. The format is in vivo, male C57BL/6 mice. The protocol: Elobixibat was administered to male C57BL/6 mice (n=5) as a subcutaneous injection at a dose of 3 or 10 mg/kg or as an intravenous injection at a dose of 1 mg/kg (single injections), or as repeated subcutaneous injections at a dose of 1 mg/kg at day 1 and day 5. Elobixibat was formulated in 70% PEG400; 10% ethanol; and 20% water and given at a dosing volume of 5 mL/kg subcutaneously or 1 mL/kg intravenously. Blood samples were collected after 0.25, 0.5, 1, 2, 4, 6, 8 and 24 hours following subcutaneous administration and after 0.083, 0.25, 0.5, 1, 2, 4, 6, 8 and 24 hours following intravenous administration. Blood samples were taken from saphenous vein. 0.2% EDTA was used as the anticoagulant. The samples were analyzed by a discovery grade bioanalytical method developed for the estimation of elobixibat in plasma, using an LC-MS/MS system.
The results for single subcutaneous (3 or 10 mg/kg) and intravenous (1 mg/kg) administrations are shown in FIG. 1, and the results for repeated subcutaneous administrations (1 mg/kg at day 1 and day 5) are shown in FIG. 2.

In series [2] the test system is DDC mice. Briefly: DDC in vivo model of cholestatic disease: serum chemistries. The arrangement: species or system male C57BL/6J WT mice. The text has this: (§1) Chronic feeding of 3,5-diethoxycarbonyl-1,4-dihydrocollidine (DDC) was used as an in vivo model for cholestatic liver injury. Chronic feeding of DDC produces an intraductal porphyrin plug which leads to ductular obstruction contributing to damage of biliary epithelia. The time course of the DDC model usually ranges from 1 to 6 weeks, depending on the severity of the cholangiopathy that the study requires. Chronic feeding of DDC in mice reproduces the main histopathological hallmarks of human cholestatic disease such as (1) remodeling of biliary compartments giving rise to ductular reaction, (2) periductular fibrosis, and (3) inflammatory infiltrate (Mariotti et al., Biochim Biophys Acta Mol Basis Dis 2018, vol. 1864, p. 1254-1261; Pose et al., Methods Mol. Biol. 2019, vol. 1981, p. 249-257).
Male C57BL/6J WT mice of 8 weeks old were used. After completion of quarantine and acclimatization period, animals were randomized based on body weight into experimental groups (n=7-9/group). Animals were fed chow (control diet) or chow plus 0.1% DDC (DDC diet) for 14 days, and treated once daily with vehicle (s.c.) or the ASBT inhibitor elobixibat at a dose of 0.3, 1.0 or 3.0 mg/kg (s.c.), as shown in Table 1. Animals were weighed at days 7, 11 and 14. Blood samples were collected at day 7. On day 11, animals were moved to individual cages with wire bottom for fecal collection. Blood, urine, tissue samples and 3-day fecal samples were collected at day 14.
Endpoints measured at the end of the study include fecal bile acid excretion, urine and serum bile acid concentration and composition, and serum chemistries reflecting liver status.

Series [3] deals with LCN2 (lipocalin-2). Description: DDC model: mRNA expression of renal proximal tubule cell injury marker LCN2. The format is in vivo, male C57BL/6J WT mice. To be noted: DDC cholestatic mice, s.c. elobixibat versus vehicle, 14 days (FIG. 7).
Source text: as §1
(§2) Male C57BL/6J WT mice of 8 weeks old were used. After completion of quarantine and acclimatization period, animals were randomized based on body weight into experimental groups (n=7-9/group). Animals were fed chow (control diet) or chow plus 0.1% DDC (DDC diet) for 14 days, and treated once daily with vehicle (s.c.) or the ASBT inhibitor elobixibat at a dose of 0.3, 1.0 or 3.0 mg/kg (s.c.), as shown in Table 1. Animals were weighed at days 7, 11 and 14. Blood samples were collected at day 7. On day 11, animals were moved to individual cages with wire bottom for fecal collection. […]

Series [4] concerns KIM-1 (kidney injury molecule-1). Description: DDC model: mRNA expression of renal proximal tubule cell injury marker KIM-1. To be noted: DDC cholestatic mice, s.c. elobixibat versus vehicle, 14 days (FIG. 6). The format is in vivo, male C57BL/6J WT mice.
Source text: as §1, §2

Where [5] appears, read: subcutaneous administration (FIG. 1).

As for `CCCCC1(CCCC)CN(c2ccccc2)c2cc(SC)c(OCC(=O)N[C@@H](C(=O)NCC(=O)O)c3ccccc3)cc2S(=O)(=O)C1` [elobixibat, 1,1-dioxo-3,3-dibutyl-5-phenyl-7-methylthio-8-(N-{(R)-1′-phenyl-1′-[N′-(carboxymethyl)-carbamoyl]methyl}carbamoylmethoxy)-2,3,4,5-tetrahydro-1,5-benzothiazepine], the clearance entry in series [1] (intravenous administration (FIG. 1)) is “quick clearance”. In series [1] (setting [5]), the bioavailability result was “high bioavailability” and the “duration of constant exposure” value was “more than 24 hours”. Also, the “serum alkaline phosphatase (ALP) levels” value in series [2] (s.c. once daily 0.3, 1.0 or 3.0 mg/kg for 14 days (FIG. 5)) is “dose-dependent trend towards reduced”. Besides, the serum bile acids entry in series [2] (s.c. once daily 0.3, 1.0 or 3.0 mg/kg for 14 days, reduced at lowest dose, no additional reduction at higher doses (FIG. 3)) is given as “statistically significant reduction”. Further, the serum total bilirubin entry in series [2] (s.c. once daily 0.3, 1.0 or 3.0 mg/kg for 14 days, reduced at lowest dose, no additional reduction at higher doses (FIG. 4)) was “statistically significant reduction”. The “mRNA expression for LCN2” value in series [3] is listed as “reduced”. Besides, in series [4], the “mRNA expression for KIM-1” value was “reduced”.
